Results as given in patent US9974800B2 (priority 2014, dated 2018).

Test system: Ebola virus
Assay type: cell-based
Conditions: alone

CC[C@H]1OC(=O)[C@H](C)[C@@H](O[C@H]2C[C@@](C)(OC)[C@@H](O)[C@H](C)O2)[C@H](C)[C@@H](O[C@@H]2O[C@H](C)C[C@H](N(C)C)[C@H]2O)[C@](C)(OC)C[C@@H](C)C(=O)[C@H](C)[C@@H](O)[C@]1(C)O [Clarithromycin]
inhibit EBOV infection in primary macrophages: can inhibit EBOV infection
